According to article PMC10586506 (Drug Metabolism and Disposition, 2023):
Where a name gives a salt, the structure may show the parent alone. Read-outs that look alike come from different tables or passages of the source.

How the values were obtained:
human OCT1 = conditions: ref Nguyen et al., 2021, cited from earlier work; for IC50: read-out: IC50 OCT1, extract normalized to berberine
[1] = Oral metformin/oral inhibitor pharmacokinetic study in mice; conditions: for decrease in geometric mean metformin Cmax relative to vehicle: oral metformin 10 mg/kg with oral test article; for effect on metformin pharmacokinetics: oral metformin with oral test article
[2] = humans, single 2.7 g dose of goldenseal; ref Gupta et al., 2015; cited from earlier work
human THTR2 = target: T1, human THTR2 (Homo sapiens, UniProt Q9BZV2); experiment: THTR2 inhibition in HEK293-LV cells overexpressing the transporter; assay type: cell-based; conditions: for inhibition at 10 µM / inhibition at 100 µM: read-out: THTR2 (%) percent inhibition of transporter activity
T1 sequence (Q9BZV2 1-496): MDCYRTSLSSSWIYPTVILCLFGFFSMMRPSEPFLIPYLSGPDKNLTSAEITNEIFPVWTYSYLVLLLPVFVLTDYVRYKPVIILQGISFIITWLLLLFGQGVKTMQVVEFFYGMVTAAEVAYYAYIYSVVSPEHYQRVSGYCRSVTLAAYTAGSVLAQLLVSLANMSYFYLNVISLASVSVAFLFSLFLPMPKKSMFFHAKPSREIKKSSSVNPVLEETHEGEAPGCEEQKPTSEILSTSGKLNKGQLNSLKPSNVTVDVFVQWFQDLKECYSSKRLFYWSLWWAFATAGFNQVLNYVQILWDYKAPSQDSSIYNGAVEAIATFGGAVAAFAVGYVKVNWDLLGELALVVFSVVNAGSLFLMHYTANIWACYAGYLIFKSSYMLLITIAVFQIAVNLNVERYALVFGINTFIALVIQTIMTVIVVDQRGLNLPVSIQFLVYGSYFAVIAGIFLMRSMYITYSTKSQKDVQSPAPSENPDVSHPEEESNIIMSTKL

human OCT3 = target: T2, human OCT3 (Homo sapiens, UniProt O75751); experiment: OCT3 inhibition in HEK293-LV cells overexpressing the transporter; assay type: cell-based; conditions: for inhibition at 10 µM / inhibition at 100 µM: read-out: OCT3 (%) percent inhibition of transporter activity
T2 sequence (O75751 1-556): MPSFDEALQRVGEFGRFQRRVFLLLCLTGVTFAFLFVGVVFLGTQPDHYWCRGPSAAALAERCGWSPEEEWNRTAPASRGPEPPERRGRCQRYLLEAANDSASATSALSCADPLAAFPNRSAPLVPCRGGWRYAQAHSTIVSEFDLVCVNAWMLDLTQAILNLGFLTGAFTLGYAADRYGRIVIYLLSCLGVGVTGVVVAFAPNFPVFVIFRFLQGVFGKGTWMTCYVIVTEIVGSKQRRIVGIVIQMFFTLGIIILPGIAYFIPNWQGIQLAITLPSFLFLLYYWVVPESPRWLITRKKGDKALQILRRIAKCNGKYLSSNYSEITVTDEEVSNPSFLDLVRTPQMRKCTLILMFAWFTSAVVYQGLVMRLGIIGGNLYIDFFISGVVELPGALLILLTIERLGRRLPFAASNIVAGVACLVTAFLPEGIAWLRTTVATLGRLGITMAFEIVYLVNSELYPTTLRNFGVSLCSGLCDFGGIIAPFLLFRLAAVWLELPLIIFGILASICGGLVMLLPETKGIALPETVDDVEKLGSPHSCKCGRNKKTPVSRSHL

human PMAT = target: T3, human PMAT (Homo sapiens, UniProt Q7RTT9); experiment: PMAT inhibition in HEK293-LV cells overexpressing the transporter; assay type: cell-based; conditions: for inhibition at 10 µM / inhibition at 100 µM: read-out: PMAT (%) percent inhibition of transporter activity
T3 sequence (Q7RTT9 1-530): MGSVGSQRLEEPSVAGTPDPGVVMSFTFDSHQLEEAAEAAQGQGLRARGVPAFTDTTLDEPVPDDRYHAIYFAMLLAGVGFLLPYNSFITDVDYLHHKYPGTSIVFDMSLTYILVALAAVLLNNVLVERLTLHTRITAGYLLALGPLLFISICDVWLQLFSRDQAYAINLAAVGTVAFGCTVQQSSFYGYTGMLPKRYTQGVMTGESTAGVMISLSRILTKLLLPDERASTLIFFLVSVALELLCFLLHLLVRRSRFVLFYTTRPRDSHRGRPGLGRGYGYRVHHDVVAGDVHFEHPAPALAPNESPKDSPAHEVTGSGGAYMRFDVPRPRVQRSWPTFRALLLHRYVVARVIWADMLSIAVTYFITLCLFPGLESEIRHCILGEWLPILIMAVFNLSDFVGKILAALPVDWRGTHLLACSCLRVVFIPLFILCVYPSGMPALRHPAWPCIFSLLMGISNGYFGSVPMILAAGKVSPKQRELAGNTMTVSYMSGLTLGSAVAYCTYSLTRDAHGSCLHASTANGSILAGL

[3] = humans; ref Nguyen et al., 2021; cited from earlier work
Caco-2 cell monolayers = conditions: cited from earlier work

| Structure (SMILES) | IC50 (human OCT1) | inhibition of OCT1 (in words) (human OCT1) | decrease in geometric mean metformin Cmax relative to vehicle [1] | effect on metformin pharmacokinetics [1] | Cmax [2] | inhibition at 10 µM (human THTR2) | inhibition at 100 µM (human THTR2) | inhibition at 10 µM (human OCT3) | inhibition at 100 µM (human OCT3) | inhibition at 10 µM (human PMAT) | inhibition at 100 µM (human PMAT) | inhibition of THTR2 (in words) (human THTR2) | inhibition of OCT3 (in words) (human OCT3) | inhibition of PMAT (in words) (human PMAT) | further results |
| --- | --- | --- | --- | --- | --- | --- | --- | --- | --- | --- | --- | --- | --- | --- | --- |
| COc1ccc2c(c1OC)C(=O)O[C@@H]2[C@H]1c2cc3c(cc2CCN1C)OCO3 [(–)-β-hydrastine, (–)-β-Hydrastine] | 6.6 µM | only inhibited OCT1 | no effect | no effect | 1.75 nM | 7% | -4% | 3% | 24% | -9% | 37% | – | – | – | – |
| COc1ccc2cc3[n+](cc2c1OC)CCc1cc2c(cc1-3)OCO2 [Berberine, Berberine chloride hydrate] | 19 µM | inhibited | no effect | no effect | 470 nM | -2% | 43% | 55% | 95% | 8% | 71% | inhibited | inhibited | inhibited | estimated intestinal luminal inhibitor concentration [3]: 354 µM; IC50 of berberine alone relative to goldenseal extract (human OCT3; across OCT3, PMAT and THTR2, fold higher): 2.8- to 7.4 fold |
| CN(C)C(=N)N=C(N)N [metformin, Metformin hydrochloride salt] | – | – | – | – | – | – | – | – | – | – | – | – | – | – | percent contribution of OCT1 to metformin uptake (Caco-2 cell monolayers; ref Han et al., 2015): 25%; percent contribution of PMAT to metformin uptake (Caco-2 cell monolayers; ref Han et al., 2015): 20%; percent contribution of SERT to metformin uptake (Caco-2 cell monolayers; ref Han et al., 2015): 20%; percent contribution of choline transporter to metformin uptake (Caco-2 cell monolayers; ref Han et al., 2015): 15%; percent contribution of passive diffusion to metformin uptake (Caco-2 cell monolayers; ref Han et al., 2015): 20%; percent contribution of OCT3 to metformin uptake (Caco-2 cell monolayers; ref Shirasaka et al., 2022): 10%; percent contribution of PMAT to metformin uptake (Caco-2 cell monolayers; ref Shirasaka et al., 2022): 10%; percent contribution of SERT to metformin uptake (Caco-2 cell monolayers; ref Shirasaka et al., 2022): 2%; percent contribution of THTR2 to metformin uptake (Caco-2 cell monolayers; ref Shirasaka et al., 2022): 22%; percent contribution of other (unidentified) transporters to metformin uptake (Caco-2 cell monolayers; ref Shirasaka et al., 2022): 1%; percent contribution of passive diffusion to metformin uptake (Caco-2 cell monolayers; ref Shirasaka et al., 2022): 55% |
| CN1CCc2cc3c(cc2C1O)OCO3 (stereo not drawn) [Hydrastinine, Hydrastinine chloride monohydrate] | – | did not inhibit | – | – | – | 2% | 19% | -5% | -3% | 11% | 43% | did not inhibit | did not inhibit | did not inhibit | – |
